Patent US9186322B2, “Platinum aggregates and process for producing the same” (Insmed Incorporated, priority 2002, dated 2015)

Experiment: TEM analysis of particles
Assay type: physicochemical
Settings: not complexed with a lipid
Description: The white to portion containing mostly light fraction was removed and the yellowish brown fraction on the bottom was used for TEM analysis. A small amount of sample (less than 10 microliters) was placed on the carbon coated grid. The grid was placed on the top of a piece of filter paper and spun an Eppendorf centrifuge for 1 minute at 500 RPM to remove excess water. Samples were air-dried for at least one hour before analysis. If centrifugation was done at too low a speed, water was not removed sufficiently enough, and the sample remained too thick, even after drying, tending to boil when exposed to high vacuum inside the TEM microscope. Centrifugation conditions were adjusted to be gentle enough to avoid damage to the grid or loss of the sample.
The cisplatin solution was briefly sonicated in a bath of room temperature water. At the first signs of cisplatin precipitation and cloudiness, a small volume was taken with a pipette and immediately placed on a carbon coated grid as described in the preceding paragraph.
TEM images were obtained on a Zeiss 910 Transmission Electron Microscope at the Princeton Imaging and Analysis Center, Princeton University, Princeton, N.J. An accelerating high voltage of 100 kV was used, and pictures were captured on a charged couple device (CCD) camera at magnifications of 2000 to 25,000×. […]

With `N.N.[Cl][Pt][Cl]` [cisplatin, cis-diamine-dichloroplatinum (II)] the crystal length was 10-20 microns and the crystal width was “approximately 2 microns”.
